Source: patent US20220339285A1, “DISSACHARIDE FORMULATIONS FOR CONTROLLED DRUG RELEASE” (TECHNICAL UNIVERSITY OF DENMARK, priority 2019, published 2022)

Key:
[1] = Experimentally obtained drug solubilities in gels; type: physicochemical
Description: Experimentally obtained drug solubilities are given in the table (all percentages are weight %).

[2] = In vitro release of RepSox and Galunisertib from LOIB based gels into PBS (Example 14); conditions: for cumulative release: after 14 days, 8 mg/gram in 82.5 (% w/w) LOIB gel, 100 μL in 2 ml PBS
Method: Following, 100 μL of each gel were injected in duplicates into 2 ml of PBS.

[3] = In vivo release of TGFb inhibitors from intratumoral gel depots (Example 32); conditions: 8 mg/g, 50 μL intratumoral, CT26 tumors, 7 days
Method: Animal handling: For each formulation 50 μL of gel was injected intratumorally in female Balb/c mice with CT26 tumors (Initial tumor volume of approximately 200 mm^3). The mice were sacrificed at different time points and gel samples were collected. The gels were stored at 4° C. until analysis. For each gel, four mice were sacrificed at each timepoint.
Samples were heated to 50° C. and stirred at 600 rpm to promote dissolution. The samples were subsequently filtered through 0.45 μm pore, nylon syringe filters.
HPLC method: Samples were analyzed on a Shimadzu Nexera-i HPLC. […] The solvent system consisted of mobile phase A (5% MeCN, 0.1% TFA in water) and mobile phase B (0.1% TFA in MeCN). Chromatographic separation was achieved using an optimized gradient.

[4] = Co-solubilization of R848 and RepSox in LOIB gel (Example 15); type: physicochemical; conditions: with 2.4 mg R848
Method: The mixture was solubilized using a magnetic stirring for 2 hours at 40-50° C. under continuous visual inspection.

[5] = Tested solubility of APIs in carbohydrate ester gels (Example 21); conditions: in the gel formulations listed for each API in Table 8; maximal solubility may be higher than tested
Method: Compositions are given in weight percent (or weight ratio) and each compound is weighed into one vial. The mixture is placed in an ultrasonication bath at 70-80° C. for 1-2 hours and occasionally vortexed to generate homogenous solutions that is subsequently stored at 4° C. until further use. Afterwards, all active pharmaceutical ingredients (APIs) are incorporated into the gels proportionally by adding gel on top of freeze-dried APIs or combinations of freeze-dried APIs. The gel is subjected to magnetic stirring at 40-50° C. until the API or combination of APIs is completely dissolved. The gel-API mixture is transferred and stored in sealed vials at room temperature or at 4° C. Certain gel-API mixtures may be stored at −20° C.

[6] = In vitro release of DOX base from SuBen and LOIB gels, fluorescence (Example 33); type: physicochemical; conditions: 7 days at 37° C
Method: The vials were incubated at 37° C. After 7 days, 1 mL of PBS was taken and analysed by fluorescence spectroscopy.
Fluorescence spectroscopy: Fluorescence measurements were taken by a Tecan fluorescence microplate reader using 96-well, transparent Nunc plates. Sample volume was 200 μL.

[7] = Solubility and integrity of CLA-1 and CLA-8 in SuBen and LOIB gels (Example 22); type: physicochemical; conditions: weight percentage
Method: HPLC assay: Samples were analyzed using a Shimadzu Nexera-i instrument. […] Chromatographic separation was achieved using a gradient of 40 to 100% phase B in 10 min. Ultraviolet detection at 280 nm was used to identify the CT contrast agents. Gel samples were prepared by dilution of 50 μL gel in 1 mL MeCN, which were then diluted 10-fold in MeCN.

[8] = In vitro release of Gardiquimod and Resiquimod from SuBen gels with different co-solvents, HPLC (Example 28); type: physicochemical; conditions: 49 days; for in vitro release of Gardiquimod: 1.2 mg/g, PBS 37° C
Method: SuBen:GTO:EtOH (60:25:15 (% w/w)) and SuBen:Lipiodol:EtOH (60:25:15 (% w/w)) were prepared by simple mixing and sonication (80° C., 90-120 min) as described in example 19. […] SuBen:GTO:EtOH:PLA (60:25:15:0.5 (% w/w)), SuBen:Ethyl-palmitate:EtOH (60:25:15 (% w/w)), and SuBen:Ethyl-oleate:EtOH (60:25:15 (% w/w)) were prepared by simple mixing and sonication (80° C., 90-120 min) as described in example 19. […] The vials are closed with lids and are incubated at 37° C. At each sampling point, take 1 mL of buffer and place it inside an Eppendorf tube. Then add 1 mL of fresh buffer to replace the taken sample. The samples are analyzed by HPLC. […] For both compounds, the flowrate was 1 mL/min and the column temperature was 40° C.

[9] = gel composition e.g LOIB 82.5%, SuBen 60%

Structure (SMILES): CCOCc1nc2c(N)nc3ccccc3c2n1CC(C)(C)O [Resiquimod (R848), Resiquimod]
- Solubility [1, 9]: >10 mg/g gel

Structure (SMILES): CC1(N)CCN(c2cnc(-c3cccc(Cl)c3Cl)c(N)n2)CC1 [SHP099]
- Solubility ([1]; gel composition e.g SuBen 60%): >1 mg/g gel

Structure (SMILES): CC(C)Cn1cnc2c(N)nc3ccccc3c21 [Imiquimod]
- Solubility ([1]; gel composition e.g SuBen 60%): >4.8 mg/g gel

Structure (SMILES): Cc1cccc(-c2[nH]ncc2-c2ccc3ncccc3n2)n1 [RepSox]
- cumulative release [2]: around 40%
- in vivo release from gel depot (ranking) [3]: fastest release
- dissolved together with R848 in LOIB:GTO:EtOH (82.5:7.5:10) gel [4]: 8 mg/g
- Solubility [1, 9]: >8 mg/g gel

Structure (SMILES): COc1ccc(CNC(=O)Nc2ncc([N+](=O)[O-])s2)cc1 [AR-A014418]
- Tested solubility in gels [5]: 1 mg/g gel

Structure (SMILES): COc1cccc2c1C(=O)c1c(O)c3c(c(O)c1C2=O)C[C@@](O)(C(=O)CO)C[C@@H]3O[C@H]1C[C@H](N)[C@H](O)[C@H](C)O1 [DOX base, doxorubicin]
- release from gels into PBS [6]: released from the gels

Structure (SMILES): O=C(OCC1OC(OC(=O)c2ccc(I)cc2)C(OC(=O)c2ccc(I)cc2)[C@@H](OC(=O)c2ccc(I)cc2)[C@@H]1O[C@@H]1OC(COC(=O)c2ccc(I)cc2)[C@H](OC(=O)c2ccc(I)cc2)[C@H](OC(=O)c2ccc(I)cc2)C1OC(=O)c1ccc(I)cc1)c1ccc(I)cc1 (stereo partly drawn) [CLA-8, α,β Lactose octa para-iodobenzoate]
- CLA-8 completely solubilized in LOIB gels [7]: up to 10%
- CLA-8 completely solubilized in SuBen gels [7]: up to 20%

Structure (SMILES): CCNCc1nc2c(N)nc3ccccc3c2n1CC(C)(C)O [Gardiquimod]
- reduction of Gardiquimod release on substitution of GTO with Lipiodol [8]: 6 fold
- in vitro release of Gardiquimod ([8]; SuBen:GTO:EtOH (60:25:15) gel): 52.5%
- in vitro release of Gardiquimod ([8]; SuBen:Lipiodol:EtOH (60:25:15) gel): 8.4%
- Solubility [1, 9]: >1.5 mg/g gel

Structure (SMILES): Cc1cccc(-c2nn3c(c2-c2ccnc4ccc(C(N)=O)cc24)CCC3)n1 [Galunisertib]
- solubilized in LOIB-based gel formulations [2]: ≥ 8 mg/gram
- cumulative release [2]: 27%
- Tested solubility in gels [5]: 8 mg/g gel
- Solubility [1, 9]: >8 mg/g gel

Structure (SMILES): Fc1ccc(Cl)cc1-c1nc(Nc2ccncc2)c2nccnc2n1 [SD-208]
- Solubility ([1]; gel composition e.g SuBen 60%): >8 mg/g gel
- Solubility ([1]; gel composition e.g SuBen:LOIB 35%/35%): >8 mg/g gel
